Data on 22 compounds can be found in patent publication US20070232615A1, “Chemical Compounds” (priority 2004, published 2007).

The structures appear in SMILES notation.

The subject of this assay is HIV. The assay is described as follows: HOS HIV infectivity assay (Table 2, strain not given). Particulars: Human immunodeficiency virus 1, read-out: Activity Level. The format is cell-based. The protocol: HOS HIV-1 Infectivity Assay
Compounds were profiled against two HIV-1 viruses, the M-tropic (CCR5 utilizing) Ba-L strain and the T-tropic (CXCR4 utilizing) IIIB strain. Both viruses were propagated in human peripheral blood lymphocytes. Compounds were tested for there ability to block infection of the HOS cell line (expressing hCXCR4/hCCR5/hCD4/pHIV-LTR-luciferase) by either HIV-1 Ba-L or HIV-1 IIIB. Compound cytotoxicity was also examined in the absence of virus addition.
HOS HIV-1 Infectivity Assay Format
HOS cells (expressing hCXCR4/hCCR5/hCD4/pHIV-LTR-luciferase) were harvested and diluted in Dulbeccos modified Eagles media supplemented with 2% FCS and non-essential amino acid to a concentration of 60,000 cells/ml. The cells were plated into 96-well plates (100 ul per well) and the plates were placed in a tissue culture incubator (37° C.; 5% CO2/95% air) for a period of 24 h.
Subsequently, 50 ul of the desired drug solution (4 times the final concentration) was added to each well and the plates were returned to the tissue culture incubator (37° C.; 5% CO2/95% air) for 1 h. Following this incubation 50 ul of diluted virus was added to each well (approximately 2 million RLU per well of virus). The plates were returned to the tissue culture incubator (37° C.; 5% CO2/95% air) and were incubated for a further 96 h.
Following this incubation the endpoint for the virally infected cultures was quantified following addition of Steady-Glo Luciferase assay system reagent (Promega, Madison, Wis.). Cell viability or non-infected cultures was measured using a CellTiter-Glo luminescent cell viability assay system (Promega, Madison, Wis.). All luminescent readouts are performed on a Topcount luminescence detector (Packard, Meridien, Conn.).
Take `CN1CCN(c2cccc3nc(CN(Cc4ccccc4F)[C@H]4CCCc5cccnc54)cn23)CC1` [Example 60, (8S)—N-[(2-Fluorophenyl)methyl]-N-{[5-(4-methyl-1-piperazinyl)imidazo[1,2-a]pyridin-2-yl]methyl}-5,6,7,8-tetrahydro-8-quinolinamine]: the IC50 was below 0.1 µM. Then `CN(Cc1cn2c(N3CC[C@@H](N)C3)cccc2n1)[C@H]1CCCc2cccnc21` [Example 92, (8S)—N-({5-[(3R)-3-Amino-1-pyrrolidinyl]imidazo[1,2-a]pyridin-2-yl}methyl)-N-methyl-5,6,7,8-tetrahydro-8-quinolinamine], with below 0.1 µM. The same measure for `CN(Cc1cn2c(N3CCCNCC3)cccc2n1)[C@H]1CCCc2cccnc21` [Example 84, (8S)—N-{[5-(Hexahydro-1H-1,4-diazepin-1-yl)imidazo[1,2-a]pyridin-2-yl]methyl}-N-methyl-5,6,7,8-tetrahydro-8-quinolinamine]: below 0.1 µM; for `COc1ccc([C@H](C)N(Cc2cn3c(N4CCN(C)CC4)cccc3n2)[C@H]2CCCc3cccnc32)cc1` [Example 48, (8S)—N-{(1S)-1-[4-(Methyloxy)phenyl]ethyl}-N-{[5-(4-methyl-1-piperazinyl)imidazo[1,2-a]pyridin-2-yl]methyl}-5,6,7,8-tetrahydro-8-quinolinamine]: 0.1 to 0.5 µM; for `Cc1cccc(CN(Cc2cn3c(N4CCN(C)CC4)cccc3n2)[C@H]2CCCc3cccnc32)c1` [Example 67, (8S)—N-[(3-Methylphenyl)methyl]-N-{[5-(4-methyl-1-piperazinyl)imidazo[1,2-a]pyridin-2-yl]methyl}-5,6,7,8-tetrahydro-8-quinolinamine]: below 0.1 µM. The same measure for `CN(Cc1cn2c(NCCN3CCCC3)cccc2n1)[C@H]1CCCc2cccnc21` [Example 102, (8S)—N-Methyl-N-[(5-{[2-(1-pyrrolidinyl)ethyl]amino}imidazo[1,2-a]pyridin-2-yl)methyl]-5,6,7,8-tetrahydro-8-quinolinamine]: below 0.1 µM. In the case of `CN1CCN(c2cccc3nc(CN(Cc4ccccc4Br)[C@H]4CCCc5cccnc54)cn23)CC1` [Example 63, (8S)—N-[(2-Bromophenyl)methyl]-N-{[5-(4-methyl-1-piperazinyl)imidazo[1,2-a]pyridin-2-yl]methyl}-5,6,7,8-tetrahydro-8-quinolinamine], the IC50 fell in the range of 0.1 to 0.5 µM. Then `CCN1CCN(c2cccc3nc(CN(C)[C@H]4CCCc5cccnc54)cn23)CC1` [Example 88, (8S)—N-{[5-(4-Ethyl-1-piperazinyl)imidazo[1,2-a]pyridin-2-yl]methyl}-N-methyl-5,6,7,8-tetrahydro-8-quinolinamine], with below 0.1 µM. For `CN1CCN(c2cccc3nc(CN(Cc4cccc(Br)c4)[C@H]4CCCc5cccnc54)cn23)CC1` [Example 64, (8S)—N-[(3-Bromophenyl)methyl]-N-{[5-(4-methyl-1-piperazinyl)imidazo[1,2-a]pyridin-2-yl]methyl}-5,6,7,8-tetrahydro-8-quinolinamine], the IC50 was below 0.1 µM. With `CC(C)Cc1ccc(CN(Cc2cn3c(N4CCN(C)CC4)cccc3n2)[C@H]2CCCc3cccnc32)cc1` [Example 77, (8S)—N-{[5-(4-Methyl-1-piperazinyl)imidazo[1,2-a]pyridin-2-yl]methyl}-N-{[4-(2-methylpropyl)phenyl]methyl}-5,6,7,8-tetrahydro-8-quinolinamine], the IC50 was below 0.1 µM. Then `CCN(Cc1cn2c(N3CCN(C)CC3)cccc2n1)[C@H]1CCCc2cccnc21` [Example 54, (8S)—N-Ethyl-N-{[5-(4-methyl-1-piperazinyl)imidazo[1,2-a]pyridin-2-yl]methyl}-5,6,7,8-tetrahydro-8-quinolinamine], with below 0.1 µM; and `CCCN(Cc1cn2c(N3CCN(C)CC3)cccc2n1)[C@H]1CCCc2cccnc21` [Example 56, (8S)—N-{[5-(4-Methyl-1-piperazinyl)imidazo[1,2-a]pyridin-2-yl]methyl}-N-propyl-5,6,7,8-tetrahydro-8-quinolinamine], with below 0.1 µM.

Regarding `CN1CCN(c2cccc3nc(CNC4CCCc5cccnc54)cn23)CC1` (stereo not shown) [Example 39, N-{[5-(4-Methyl-1-piperazinyl)imidazo[1,2-a]pyridin-2-yl]methyl}-5,6,7,8-tetrahydro-8-quinolinamine], the IC50 was below 0.1 µM. The same measure for `CN(C)C1CN(c2cccc3nc(CN(C)C4CCCc5cccnc54)cn23)C1` (stereo not shown) [Example 26, N-({5-[3-(Dimethylamino)-1-azetidinyl]imidazo[1,2-a]pyridin-2-yl}methyl)-N-methyl-5,6,7,8-tetrahydro-8-quinolinamine]: 0.1 to 0.5 µM; for `CN1CCN(c2cccc3nc(CN(Cc4cccc(F)c4)[C@H]4CCCc5cccnc54)cn23)CC1` [Example 61, (8S)—N-[(3-Fluorophenyl)methyl]-N-{[5-(4-methyl-1-piperazinyl)imidazo[1,2-a]pyridin-2-yl]methyl}-5,6,7,8-tetrahydro-8-quinolinamine]: below 0.1 µM. For `Cc1ccc(CN(Cc2cn3c(N4CCN(C)CC4)cccc3n2)[C@H]2CCCc3cccnc32)cc1` [Example 68, (8S)—N-[(4-Methylphenyl)methyl]-N-{[5-(4-methyl-1-piperazinyl)imidazo[1,2-a]pyridin-2-yl]methyl}-5,6,7,8-tetrahydro-8-quinolinamine], the IC50 is below 0.1 µM. The same measure for `COc1ccc([C@H](C)N(Cc2cn3c(N4CC[C@@H](N(C)C)C4)cccc3n2)[C@H]2CCCc3cccnc32)cc1` [Example 95, (8S)—N-({5-[(3R)-3-(Dimethylamino)-1-pyrrolidinyl]imidazo[1,2-a]pyridin-2-yl}methyl)-N-{(1S)-1-[4-(methyloxy)phenyl]ethyl}-5,6,7,8-tetrahydro-8-quinolinamine]: 0.1 to 0.5 µM; for `CN(Cc1cn2c(N)cccc2n1)C1CCCc2cccnc21` (stereo not shown) [Example 43, N-[(5-Aminoimidazo[1,2-a]pyridin-2-yl)methyl]-N-methyl-5,6,7,8-tetrahydro-8-quinolinamine]: 0.1 to 0.5 µM; for `CN(Cc1cn2c(N3CCCNCC3)cccc2n1)C1CCCc2cccnc21` (stereo not shown) [Example 30, N-{[5-(Hexahydro-1H-1,4-diazepin-1-yl)imidazo[1,2-a]pyridin-2-yl]methyl}-N-methyl-5,6,7,8-tetrahydro-8-quinolinamine]: below 0.1 µM. The same measure for `CC(c1cn2c(N3CCN(C)CC3)cccc2n1)N(C)[C@H]1CCCc2cccnc21` (stereo partly drawn) [Example 100, (8S)—N-Methyl-N-{1-[5-(4-methyl-1-piperazinyl)imidazo[1,2-a]pyridin-2-yl]ethyl}-5,6,7,8-tetrahydro-8-quinolinamine]: below 0.1 µM; for `CN1CCN(c2cccc3nc(CN(Cc4ccccc4C(F)(F)F)[C@H]4CCCc5cccnc54)cn23)CC1` [Example 69, (8S)—N-{[5-(4-Methyl-1-piperazinyl)imidazo[1,2-a]pyridin-2-yl]methyl}-N-{[2-(trifluoromethyl)phenyl]methyl}-5,6,7,8-tetrahydro-8-quinolinamine]: 0.1 to 0.5 µM. For `CCCN(Cc1cn2c(N3CC[C@@H](N(C)C)C3)cccc2n1)[C@H]1CCCc2cccnc21` [Example 97, (8S)—N-({5-[(3R)-3-(Dimethylamino)-1-pyrrolidinyl]imidazo[1,2-a]pyridin-2-yl}methyl)-N-propyl-5,6,7,8-tetrahydro-8-quinolinamine], the IC50 was below 0.1 µM.
